This is an account of results in patent US20180071242A1, “SUBSTITUTED ACYLANILIDES AND METHODS OF USE THEREOF” (University of Tennessee Research Foundation, priority 2006, published 2018).

The assay has as its system DMD (−/−) UTRN (−/−) mice. As to the kind of experiment: Double knockout mouse model of Duchenne muscular dystrophy. The settings on record: 10 mg/kg/day, data cumulative across the SARM groups.

For the molecule `C[C@](O)(COc1ccc(C#N)cc1)C(=O)Nc1ccc(C#N)c(Cl)c1` [S-(I), (S)—N-(3-chloro-4-cyanophenyl)-3-(4-cyanophenoxy)-2-hydroxy-2-methylpropanamide], the “Ability to be ambulatory (in words)” value is “enhanced the ability of these mice to be ambulatory”, the “Deterioration of body weight (in words)” value is “delayed the deterioration”, the “Deterioration of grip strength (in words)” value is “delayed the deterioration” and the “Deterioration of lean mass (in words)” value is “delayed the deterioration”.
